According to patent US4145554A, “3-Nitropyrazole derivatives” (Eli Lilly and Company, priority 1977, dated 1979):
In brackets after ≈: the same amount, converted by molar mass. Like-named read-outs stand apart in the source and are kept apart here.

Key:
Streptococcus sp. 80 = assay: in vitro tube dilution test (MIC); assay type: cell-based; details: Streptococcus sp. 80, tube dilution; read-out: MIC
Description: (§1) Other compounds of our invention have also been tested in the tube dilution test and shown to have in vitro activity against a number of microorganisms. The table below reports tests of a number of exemplary compounds against exemplary microorganisms. The compounds are identified by their numbers in the listing above. The data are reported as the MIC in micrograms per milliliter against the named exemplary microorganisms.

Vibrio coli 3811 = assay: in vitro tube dilution test (MIC); assay type: cell-based; details: Campylobacter coli; Vibrio coli 3811, tube dilution; read-out: MIC
Description: (§2) The other preferred compounds of our invention have also been thoroughly tested in the in vitro tube dilution test.
as §1

Salmonella dublin = assay: in vitro tube dilution test (MIC); assay type: cell-based; details: Salmonella enterica; Salmonella dublin, tube dilution; read-out: MIC
Description: as §2, §1

[1] = system: Staphylococcus aureus sp. 1130; assay: in vitro tube dilution test (MIC); assay type: cell-based; details: read-out: MIC
Description: as §2, §1

H. meleagridis [2] = assay: Blackhead in poultry, chicks; assay type: in vivo
Method: (§3) One- to three-week-old chicks and turkey poults were obtained from homogeneous source flocks and allocated into treatment groups. Some groups were held as infected, untreated controls, and other groups were treated with 3-nitropyrazoles by administering the compounds in the birds' feed. Various concentrations of the pyrazoles were administered to determine the least concentration which protected the birds. A few days after the administration of medicated feed began, all of the birds were challenged by rectally administering a suspension of at least 5,000 H. meleagridis protozoa per chick. The challenge organisms had been originally obtained from infected chickens, and were grown in vitro to provide a supply of organisms for testing.
(§4) The birds were held for about seven days after the challenge was administered, during which time the administration of pyrazole-medicated feed was continued. Then all of the chicks, including the untreated, infected controls, were sacrificed and necropsied. The cecum and the liver of each bird were examined for characteristic H. meleagridis lesions.
(§5) For each compound, the lowest feed concentration which gave an active response is indicated. While feed consumption data were not taken during the tests, the birds ate at such a rate that a feed concentration of 0.02 percent is equivalent to a treatment rate of about 10 mg./kg./day.

Salmonella typhimurium = assay: Salmonellosis in chickens, single injection to day-old chicks; assay type: in vivo; details: for responders at 60 mg/kg: Salmonella enterica, TYPHIMURIUM, 168 h, single injection of 60 mg./kg., seven days, read-out: Survival (converted)
Method: A number of our 3-nitropyrazoles have been tested against an induced infection of Salmonella typhimurium in day-old chicks. The test was conducted by administering a single injection of 60 mg./kg. of the compounds to each of five chicks. The following day, the chicks were challenged by the subcutaneous injection of a dispersion of S. typhimurium organisms sufficient to kill most or all of the untreated control chicks.
Some of the compounds were tested more than once, in which instances the data are reported as the total survivors from the multiple treatment groups. Untreated, challenged control groups of chicks were tested together with each batch of groups of chicks to which test compounds were administered. Since the mortality of the untreated control chicks varied somewhat from one group of tests to another, results of the untreated control groups are reported below with each test.

Pasteurella multocida = assay: in vitro tube dilution test (MIC); assay type: cell-based; details: tube dilution, read-out: MIC
Description: (§6) Our compound, 1-(2-hydroxyethyl)-3-nitro-4-pyrazolecarboxamide, has been extensively tested in vitro to determine the range of microorganisms against which it is active. The table of data below reports the minimum inhibitory concentration (MIC) at which the compound is effective in controlling a variety of microorganisms in a standard tube dilution test system. The MIC is reported as micrograms of compound per milliliter.
as §2, §1

Escherichia coli = assay: in vitro tube dilution test (MIC); assay type: cell-based; details: tube dilution, read-out: MIC
Description: as §6, §1

Mycoplasma gallisepticum = assay: in vitro tube dilution test (MIC); assay type: cell-based; details: Mycoplasmoides gallisepticum; Mycoplasma gallisepticum, tube dilution; read-out: MIC
Description: as §6, §1

H. meleagridis [3] = assay: Blackhead in poultry, turkeys; assay type: in vivo
Method: as §3, §4, §5

Streptococcus pyogenes = assay: Tests in mice, Streptococcus pyogenes infection; assay type: in vivo; details: S. pyogenes; for Days Survived: two subcutaneous doses of 83 mg./kg., 1 and 5 hours; for ED50: Streptococcus pyogenes, sc, subcutaneous, 1 and 5 hours post-inoculation
Method: (§7) Groups of laboratory mice were inoculatd with E. coli or with Streptococcus pyogenes. The 3-nitropyrazoles were administered in two different modes to the infected mice. In one group of tests, the compound was administered in two subcutaneous doses of 83 mg./kg. each, given 1 and 5 hours after the mice were inoculated with the organism. The mice were observed, and the results reported below as the number of days the treated mice survived the challenge.
(§8) In the other group of tests, the dose of each compound which allowed 50 percent of the treated mice to survive the challenge was determined. Again, the compound was administered in subcutane divided doses, 1 and 5 hours post-inoculation.

Pseudomonas sp. = assay: in vitro tube dilution test (MIC); assay type: cell-based
Description: as §6, §2

[4] = system: Salmonella typhimurium 1335; assay: in vitro tube dilution test (MIC); assay type: cell-based; details: Salmonella enterica; Salmonella typhimurium 1335, tube dilution
Description: as §6, §2

[5] = system: Salmonella heidelburg 1593; assay: in vitro tube dilution test (MIC); assay type: cell-based; details: Salmonella heidelburg 1593, tube dilution
Description: as §6, §2

Salmonella pullorum Ill. = assay: in vitro tube dilution test (MIC); assay type: cell-based; details: Salmonella enterica
Description: as §6, §2

[6] = system: Staphylococcus aureus 3055; assay: in vitro tube dilution test (MIC); assay type: cell-based; details: Staphylococcus aureus 3055, tube dilution
Description: as §2

[7] = system: Mycoplasma gallisepticum 38502; assay: in vitro tube dilution test (MIC); assay type: cell-based; details: Mycoplasmoides gallisepticum; Mycoplasma gallisepticum 38502, tube dilution
Description: as §2

E. coli = assay: Tests in mice, E. coli infection; assay type: in vivo; details: for ED50: Escherichia coli, sc, subcutaneous, 1 and 5 hours post-inoculation; for Days Survived: two subcutaneous doses of 83 mg./kg., 1 and 5 hours
Method: as §7, §8

Erwinia amylovora = assay: Fire blight of pear, in vivo greenhouse test
Method: An in vivo test was conducted against the fire blight organism, Erwinia amylovora. Plants infected with E. amylovora were sprayed with aqueous dispersions containing 100 ppm. and 500 ppm. of the test compounds. […] The compounds are identified below by their compound numbers in the above listing.

[8] = Staphylococcus aureus sp. 1130, tube dilution

NC(=O)c1cn(CC2CC2)nc1[N+](=O)[O-] [Compound 90, 1-cyclopropylmethyl-3-nitro-4-pyrazolecarboxamide]
MIC (Streptococcus sp. 80): > 50 µg/mL
MIC (Vibrio coli 3811): 50 µg/mL (≈ 238 µM)
MIC (Salmonella dublin): 50 µg/mL (≈ 238 µM)
MIC [1, 8]: 50 µg/mL (≈ 238 µM)
Active Level (lowest feed concentration which gave an active response) (H. meleagridis [2]): .02%
responders at 60 mg/kg (Salmonella typhimurium): 80%
MIC (Pasteurella multocida): 25 µg/mL (≈ 119 µM)
MIC (Escherichia coli): 50 µg/mL (≈ 238 µM)
MIC (Mycoplasma gallisepticum): > 50 µg/mL

NC(=O)c1cn(CCc2ccccc2)nc1[N+](=O)[O-] [Compound 17, 1-phenethyl-3-nitro-4-pyrazolecarboxamide]
Active Level (lowest feed concentration which gave an active response) (H. meleagridis [3]): .02%
Active Level (lowest feed concentration which gave an active response) (H. meleagridis [2]): .0067%

CNC(=O)c1cn(CCO)nc1[N+](=O)[O-] [Compound 58, 1-(2-hydroxyethyl)-N-methyl-3-nitro-4-pyrazolecarboxamide]
Days Survived (Streptococcus pyogenes): 1.8 days
MIC (Vibrio coli 3811): 25 µg/mL (≈ 117 µM)
MIC (Salmonella dublin): 12.5 µg/mL (≈ 58.4 µM)
MIC ([1]; Staphylococcus aureus, SP.1130, Staphyloccocus 1130, tube dilution): 12.5 µg/mL (≈ 58.4 µM)
MIC (Pseudomonas sp.): 25 µg/mL (≈ 117 µM)
MIC [4]: 12.5 µg/mL (≈ 58.4 µM)
MIC [5]: 12.5 µg/mL (≈ 58.4 µM)
MIC (Salmonella pullorum Ill.): 3.12 µg/mL (≈ 14.6 µM)
MIC [6]: 10 µg/mL (≈ 46.7 µM)
MIC [7]: 6.25 µg/mL (≈ 29.2 µM)
responders at 60 mg/kg (Salmonella typhimurium): 90%
MIC (Pasteurella multocida): 0.78 µg/mL (≈ 3.64 µM)
ED50 (E. coli): 40 mg/kg
Days Survived (E. coli): 7.0 days

COCCn1cc(C(N)=O)c([N+](=O)[O-])n1 [Compound 65, 1-(2-methoxyethyl)-3-nitro-4-pyrazolecarboxamide]
MIC (Streptococcus sp. 80): > 50 µg/mL
MIC (Vibrio coli 3811): 50 µg/mL (≈ 233 µM)
MIC (Salmonella dublin): 12.5 µg/mL (≈ 58.4 µM)
MIC [1, 8]: 50 µg/mL (≈ 233 µM)
Active Level (lowest feed concentration which gave an active response) (H. meleagridis [2]): .02%
responders at 60 mg/kg (Salmonella typhimurium): 70%
MIC (Pasteurella multocida): 50 µg/mL (≈ 233 µM)
MIC (Escherichia coli): 12.5 µg/mL (≈ 58.4 µM)
MIC (Mycoplasma gallisepticum): 50 µg/mL (≈ 233 µM)

Cn1cc(C(N)=O)c([N+](=O)[O-])n1 [Compound 3, 1-methyl-3-nitro-4-pyrazolecarboxamide]
MIC (Streptococcus sp. 80): 100 µg/mL (≈ 588 µM)
Percent Control of fire blight (Erwinia amylovora; 100 ppm.): 25%
Percent Control of fire blight (Erwinia amylovora; 500 ppm.): 75%
MIC (Vibrio coli 3811): 6.25 µg/mL (≈ 36.7 µM)
MIC (Salmonella dublin): 6.25 µg/mL (≈ 36.7 µM)
MIC [1, 8]: 12.5 µg/mL (≈ 73.5 µM)
Active Level (lowest feed concentration which gave an active response) (H. meleagridis [2]): .02%
MIC (Escherichia coli): 12.5 µg/mL (≈ 73.5 µM)
MIC (Mycoplasma gallisepticum): 50 µg/mL (≈ 294 µM)

CC(C)NC(=O)c1cn(CCO)nc1[N+](=O)[O-] [Compound 88, 1-(2-hydroxyethyl)-N-isopropyl-3-nitro-4-pyrazolecarboxamide]
MIC (Streptococcus sp. 80): > 50 µg/mL
Days Survived (Streptococcus pyogenes): 2.0 days
MIC (Vibrio coli 3811): 50 µg/mL (≈ 206 µM)
MIC (Salmonella dublin): > 50 µg/mL
MIC [1, 8]: > 50 µg/mL
MIC (Pasteurella multocida): 6.25 µg/mL (≈ 25.8 µM)
Days Survived (E. coli): 4.8 days
MIC (Escherichia coli): 50 µg/mL (≈ 206 µM)
MIC (Mycoplasma gallisepticum): 3.12 µg/mL (≈ 12.9 µM)

CCS(=O)(=O)CCn1cc(C(N)=O)c([N+](=O)[O-])n1 [Compound 35, 1-(2-ethylsulfonylethyl)-3-nitro-4-pyrazolecarboxamide]
MIC (Streptococcus sp. 80): 25 µg/mL (≈ 90.5 µM)
Days Survived (Streptococcus pyogenes): 7.0 days
ED50 (Streptococcus pyogenes): 36.2 mg/kg
MIC (Vibrio coli 3811): 50 µg/mL (≈ 181 µM)
MIC (Salmonella dublin): 50 µg/mL (≈ 181 µM)
MIC [1, 8]: 3.12 µg/mL (≈ 11.3 µM)
responders at 60 mg/kg (Salmonella typhimurium): 80%
MIC (Pasteurella multocida): 6.25 µg/mL (≈ 22.6 µM)
Days Survived (E. coli): 1.0 days
MIC (Escherichia coli): 50 µg/mL (≈ 181 µM)
MIC (Mycoplasma gallisepticum): > 50 µg/mL

CNc1nnc(-c2cn(C)nc2[N+](=O)[O-])s1 [Compound 2, 2-(1-methyl-3-nitro-4-pyrazolyl)-5-methylamino-1,3,4-thiadiazole]
MIC (Streptococcus sp. 80): 50 µg/mL (≈ 208 µM)
MIC (Vibrio coli 3811): 25 µg/mL (≈ 104 µM)
MIC (Salmonella dublin): 50 µg/mL (≈ 208 µM)
MIC [1, 8]: 50 µg/mL (≈ 208 µM)
Active Level (lowest feed concentration which gave an active response) (H. meleagridis [2]): .02%
chicks protected of the 5-bird treated group (Salmonella typhimurium; salmonella challenge): at least three chicks of the 5-bird treated group
MIC (Escherichia coli): 50 µg/mL (≈ 208 µM)
MIC (Mycoplasma gallisepticum): 6.25 µg/mL (≈ 26 µM)

CCOC(Cn1cc(C(N)=O)c([N+](=O)[O-])n1)OCC [Compound 82, 1-(2,2-diethoxyethyl)-3-nitro-4-pyrazolecarboxamide]
MIC (Streptococcus sp. 80): 50 µg/mL (≈ 184 µM)
MIC (Vibrio coli 3811): 50 µg/mL (≈ 184 µM)
MIC (Salmonella dublin): 50 µg/mL (≈ 184 µM)
MIC [1, 8]: 50 µg/mL (≈ 184 µM)
responders at 60 mg/kg (Salmonella typhimurium): 80%
MIC (Pasteurella multocida): 50 µg/mL (≈ 184 µM)
MIC (Escherichia coli): 50 µg/mL (≈ 184 µM)
MIC (Mycoplasma gallisepticum): 25 µg/mL (≈ 91.8 µM)

CNC(=O)c1cn(C)nc1[N+](=O)[O-] [Compound 61, N,1-dimethyl-3-nitro-4-pyrazolecarboxamide]
MIC (Streptococcus sp. 80): 50 µg/mL (≈ 272 µM)
Days Survived (Streptococcus pyogenes): 1.0 days
ED50 (Streptococcus pyogenes): > 83 mg/kg
MIC (Salmonella dublin): 50 µg/mL (≈ 272 µM)
MIC [1, 8]: 50 µg/mL (≈ 272 µM)
responders at 60 mg/kg (Salmonella typhimurium): 70%
ED50 (E. coli): 68 mg/kg
MIC (Escherichia coli): 50 µg/mL (≈ 272 µM)
MIC (Mycoplasma gallisepticum): 12.5 µg/mL (≈ 67.9 µM)
